What was measured:
MKK7 = target: T1, MKK7 (Homo sapiens, UniProt O14733, C202S/C260S/C280S); assay: Real-time and endpoint fluorescence measurements with glycine-rich loop acrylodan-labelled MKK7 kinase domain; assay type: binding
T1 sequence (O14733 101-408 C202S/C260S/C280S): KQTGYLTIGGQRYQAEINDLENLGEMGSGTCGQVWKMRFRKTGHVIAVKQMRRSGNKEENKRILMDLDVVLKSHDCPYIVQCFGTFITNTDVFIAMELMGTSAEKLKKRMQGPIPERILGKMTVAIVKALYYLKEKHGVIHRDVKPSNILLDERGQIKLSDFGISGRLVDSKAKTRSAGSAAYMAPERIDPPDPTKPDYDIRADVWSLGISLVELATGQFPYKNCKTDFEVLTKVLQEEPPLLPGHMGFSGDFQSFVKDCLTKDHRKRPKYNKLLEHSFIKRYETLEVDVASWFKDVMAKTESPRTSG
Description: FIG. 8. Real-time and endpoint fluorescence measurements of a Type II and Type I ligands using glycine-rich loop labelled MKK7. […] Real-time kinetic measurements and detection of binding and dissociation of K252a.
Therefore, the Kd of a Type I inhibitor (K252a) to P-loop labelled MKK7 was measured. […] FIG. 8C highlights the real-time kinetic measurements and detection of binding and dissociation of K252a.

p38α = target: T2, p38α (Homo sapiens, UniProt Q16539, C119S/C162S/F327L/Y35C); assay: Endpoint fluorescence binding measurements with acrylodan-labelled p38α (glycine-rich loop / P-loop labelled, Y35C); details: fluorescence response of acrylodan-labelled p38α
T2 construct: His-tag (N, cleaved yes); made in house; host or cells: E. coli BL21(DE3)
T2 sequence (Q16539 whole entry Y35C/C119S/C162S/F327L): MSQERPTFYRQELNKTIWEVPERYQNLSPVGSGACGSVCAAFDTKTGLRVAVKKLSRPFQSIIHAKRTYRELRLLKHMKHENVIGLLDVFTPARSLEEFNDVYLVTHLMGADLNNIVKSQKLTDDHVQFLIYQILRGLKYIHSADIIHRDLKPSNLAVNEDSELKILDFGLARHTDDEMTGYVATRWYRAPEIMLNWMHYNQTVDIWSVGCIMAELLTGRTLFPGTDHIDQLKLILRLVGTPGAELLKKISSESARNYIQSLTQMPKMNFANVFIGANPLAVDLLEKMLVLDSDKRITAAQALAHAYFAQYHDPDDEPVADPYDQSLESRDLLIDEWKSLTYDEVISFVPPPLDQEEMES
Description: For acrylodan-labelled p38α, ratiometric fluorescence values (R=Iλ512/Iλ475) enabled reliable binding curves of detected compounds to be plotted, allowing for direct determination of the Kd of ligand binding. It should be noted that binding modes of detected molecules can initially be assessed in HTS formats by measuring plates from primary and/or secondary screens at different time points. Compounds that change the maximum ratiometric signal or Kd over time are likely to be Type II/III inhibitors. Alternatively, kinetics of the association (kon) and dissociation (koff) of selected compounds can be determined using cuvettes. To determine kon, a mini stir bar was placed in the bottom of each cuvette to ensure rapid mixing as inhibitor was delivered through the injection port located above the cuvette. […] Nearly instantaneous binding kinetics (<5 s) are characteristic of Type I inhibitors, while slower kinetics (>10 s) indicate the slower binding of Type II or Type III inhibitors to the DFG-out conformation. Following binding, koff was determined by adding a 10-fold excess of unlabelled kinase to shift the binding equilibrium away from the labelled kinase. Addition of excess unlabelled kinase causes the inhibitor to redistribute and dissociate from acrylodan-labelled p38α, resulting in a recovery of the fluorescence signal.

## CNC(=O)c1cc(Oc2ccc(NC(=O)Nc3ccc(Cl)c(C(F)(F)F)c3)cc2)ccn1 [sorafenib]
MKK7; negative controls, up to 10 μM
  detection of ligand binding by P-loop labelled MKK7: not detected up to 10 uM

## COC(=O)[C@@]1(O)C[C@H]2O[C@]1(C)n1c3ccccc3c3c4c(c5c6ccccc6n2c5c31)C(=O)NC4 [K252a]
MKK7
  Kd: 38 nM
MKK7; real-time measurements, P-loop labelled MKK7
  kinetics of binding and dissociation: fast

## NC(=O)c1c(OCc2c(F)cc(Br)cc2F)nsc1NC(=O)NCCCCN1CCCC1 [CP547632]
p38α
  detection of ligand binding by the P-loop labelled p38α assay: detected
